Experimental data reported in patent publication US10975057B2, “6-aminopyridin-3-yl pyrazoles as modulators of RORgT” (Janssen Pharmaceutica NV, priority 2018, dated 2021).

Experiments:
[1] = test system: IL-17 production by CD4 T cells; assay: cells; settings: Homo sapiens, 72 h, read-out: Human Th17 Assay, IC50 (μM)
Description: The human Th17 assay tests the effect of RORγt modulatory compounds on IL-17 production by CD4 T cells under conditions which favor Th17 differentiation. Total CD4^+ T cells were isolated from the peripheral blood mononuclear cells (PBMC) of healthy donors using a CD4^+ T cell isolation kit II, following the manufacturer's instructions (Miltenyi Biotec). […] 50 μL of compound at titrated concentrations in DMSO were added into each well at final DMSO concentration at 0.2%. Cells were incubated for 1 hour, then 50 μL of Th17 cell differentiation medium was added to each well. The final concentrations of antibodies and cytokines (R&D Systems) in differentiation medium were: 3×10^6/mL anti-CD3/CD28 beads (prepared using human T cell activation/expansion kit, Miltenyi Biotec), 10 μg/mL anti-IL4, 10 μg/mL anti-IFNγ, 10 ng/mL IL1β, 10 ng/mL IL23, 50 ng/mL IL6, 3 ng/mL TGFβ and 20 U/mL IL2. Cells were cultured at 37° C. and 5% CO2 for 3 days. Supernatants were collected and the accumulated IL-17 in culture was measured by using MULTI-SPOT® Cytokine Plate following manufacture's instruction (Meso Scale Discovery). The plate was read using Sector Imager 6000, and IL-17 concentration was extrapolated from the standard curve. The IC50s were determined by GraphPad.

[2] = test system: Th17-dependent learned helplessness; settings: mice; cited from earlier work
obese diabetic mice = settings: cited from earlier work

Compound	IC50 [1] [µM]	other results
CCn1nc(C(=O)NC[C@]2(O)CC[C@@H](S(C)(=O)=O)CC2)c(C)c1-c1cnc(NC(C)(C)CC(F)(F)F)cc1OC(F)F [Example 1, 5-(4-(Difluoromethoxy)-6-((4,4,4-trifluoro-2-methylbutan-2-yl)amino)pyridin-3-yl)-1-ethyl-N-(((1s,4s)-1-hydroxy-4-(methylsulfonyl)cyclohexyl)methyl)-4-methyl-1H-pyrazole-3-carboxamide]	0.0066	
CCn1nc(C(=O)NC[C@]2(O)CC[C@@H](S(C)(=O)=O)CC2)c(Cl)c1-c1cnc(NC(C)(C)CC(F)(F)F)cc1OC(F)F [Example 15, 4-Chloro-5-(4-(difluoromethoxy)-6-((4,4,4-trifluoro-2-methylbutan-2-yl)amino)pyridin-3-yl)-1-ethyl-N-(((1s,4s)-1-hydroxy-4-(methylsulfonyl)cyclohexyl)methyl)-1H-pyrazole-3-carboxamide]	0.0062	
CCn1nc(C(=O)NC[C@]2(O)CC[C@@H](S(C)(=O)=O)CC2)c(Cl)c1-c1cnc(NC(C)(C)CC(F)(F)F)cc1C(C)C [Example 16, 4-Chloro-1-ethyl-N-(((1s,4s)-1-hydroxy-4-(methylsulfonyl)cyclohexyl)methyl)-5-(4-isopropyl-6-((4,4,4-trifluoro-2-methylbutan-2-yl)amino)pyridin-3-yl)-1H-pyrazole-3-carboxamide]	0.017	
CCc1cc(NC(C)(C)CC(F)(F)F)ncc1-c1c(Cl)c(C(=O)NC[C@]2(O)CC[C@@H](S(C)(=O)=O)CC2)nn1CC [Example 18, 4-Chloro-1-ethyl-5-(4-ethyl-6-((4,4,4-trifluoro-2-methylbutan-2-yl)amino)pyridin-3-yl)-N-(((1s,4s)-1-hydroxy-4-(methylsulfonyl)cyclohexyl)methyl)-1H-pyrazole-3-carboxamide]	0.0041	
CCn1nc(C(=O)NC[C@]2(O)CC[C@@H](S(C)(=O)=O)CC2)c(Cl)c1-c1cnc(NC(C)(C)CC(F)(F)F)cc1OC [Example 79, 4-Chloro-1-ethyl-N-(((1s,4s)-1-hydroxy-4-(methylsulfonyl)cyclohexyl)methyl)-5-(4-methoxy-6-((4,4,4-trifluoro-2-methylbutan-2-yl)amino)pyridin-3-yl)-1H-pyrazole-3-carboxamide]	0.013	
CCn1nc(C(=O)NC[C@]2(O)CC[C@@H](S(C)(=O)=O)CC2)c(Cl)c1-c1cnc(NC(C)(C)CC(F)(F)F)cc1C(F)F [Example 97, 4-Chloro-5-(4-(difluoromethyl)-6-((4,4,4-trifluoro-2-methylbutan-2-yl)amino)pyridin-3-yl)-1-ethyl-N-(((1s,4s)-1-hydroxy-4-(methylsulfonyl)cyclohexyl)methyl)-1H-pyrazole-3-carboxamide]	0.0033	
CCn1nc(C(=O)NC[C@H]2CC[C@H](S(C)(=O)=O)CC2)c(Cl)c1-c1cnc(N[C@H](C)C(F)(F)F)cc1OC [Example 98, 4-Chloro-1-ethyl-5-(4-methoxy-6-(((R)-1,1,1-trifluoropropan-2-yl)amino)pyridin-3-yl)-N-(((1r,4R)-4-(methylsulfonyl)cyclohexyl)methyl)-1H-pyrazole-3-carboxamide]	0.14	
CC(=O)Nc1nc(C)c(S(=O)(=O)Nc2ccc(C(O)(C(F)(F)F)C(F)(F)F)cc2)s1 [SR1001]		Th17-dependent learned helplessness [2]: reduced Th17-dependent learned helplessness
CC(=O)N1CCN(Cc2ccc(-c3ccc(C(O)(C(F)(F)F)C(F)(F)F)cc3)cc2)CC1 [SR1555]		body weight (obese diabetic mice): reduced body weight; fat mass (obese diabetic mice): significant reduction in fat mass; food intake (obese diabetic mice): modest reduction in food intake; insulin sensitivity (obese diabetic mice): improved insulin sensitivity
